Experimental data from ChEMBL document CHEMBL2401728, “An unexpected Dimroth rearrangement leading to annelated thieno[3,2-d][1,2,3]triazolo[1,5-a]pyrimidines with potent antitumor activity” (Eur J Med Chem, 2013).

How the values were obtained:
Assay type in all cases: functional
SNB-75 = test: Cytotoxicity against human SNB75 cells assessed as cellular growth at 0.1 uM after 48 hrs by SRB assay relative to control
COLO 205 [1] = test: Cytotoxicity against human COLO205 cells assessed as cellular growth at 100 uM after 48 hrs by SRB assay relative to control
SR [2] = test: Cytotoxicity against human SR cells assessed as cellular growth at 100 uM after 48 hrs by SRB assay relative to control
SK-MEL-28 [3] = test: Cytotoxicity against human SK-MEL-28 cells after 48 hrs by SRB assay; conditions: SK-MEL-28, 48 h
SR [4] = test: Cytotoxicity against human SR cells after 48 hrs by SRB assay
SR [5] = test: Cytotoxicity against human SR cells assessed as cellular growth at 1 uM after 48 hrs by SRB assay relative to control
T47D = test: Cytotoxicity against human T47D cells assessed as cellular growth at 1 uM after 48 hrs by SRB assay relative to control
BT-549 [6] = test: Cytotoxicity against human BT549 cells after 48 hrs by SRB assay; conditions: BT-549, 48 h
HOP-62 [7] = test: Cytotoxicity against human HOP62 cells assessed as cellular growth at 10 uM after 48 hrs by SRB assay relative to control
NCI-H226 = test: Cytotoxicity against human NCI-H226 cells assessed as cellular growth at 1 uM after 48 hrs by SRB assay relative to control
UACC-62 [8] = test: Cytotoxicity against human UACC62 cells assessed as cellular growth at 1 uM after 48 hrs by SRB assay relative to control
OVCAR-4 [9] = test: Cytotoxicity against human OVCAR4 cells assessed as cellular growth at 0.1 uM after 48 hrs by SRB assay relative to control
SK-MEL-28 [10] = test: Cytotoxicity against human SK-MEL-28 cells assessed as cellular growth at 1 uM after 48 hrs by SRB assay relative to control
TK-10 = test: Cytotoxicity against human TK10 cells after 48 hrs by SRB assay; conditions: TK-10, 48 h
UACC-62 [11] = test: Cytotoxicity against human UACC62 cells assessed as cellular growth at 0.1 uM after 48 hrs by SRB assay relative to control
LOX IMVI = test: Cytotoxicity against human LOXIMVI cells assessed as cellular growth at 0.1 uM after 48 hrs by SRB assay relative to control
HCT-116 = test: Cytotoxicity against human HCT116 cells assessed as cellular growth at 100 uM after 48 hrs by SRB assay relative to control
SF-295 = test: Cytotoxicity against human SF295 cells after 48 hrs by SRB assay; conditions: SF-295, 48 h
OVCAR-4 [12] = test: Cytotoxicity against human OVCAR4 cells assessed as cellular growth at 100 uM after 48 hrs by SRB assay relative to control
Malme-3M = test: Cytotoxicity against human MALME-3M cells after 48 hrs by SRB assay
BT-549 [13] = test: Cytotoxicity against human BT549 cells assessed as cellular growth at 0.1 uM after 48 hrs by SRB assay relative to control
NCI-H460 = test: Cytotoxicity against human NCI-H460 cells after 48 hrs by SRB assay; conditions: NCI-H460, 48 h
UACC-62 [14] = test: Cytotoxicity against human UACC62 cells assessed as cellular growth at 0.01 uM after 48 hrs by SRB assay relative to control
MDA-MB-231 = test: Cytotoxicity against human MDA-MB-231 cells assessed as cellular growth at 0.1 uM after 48 hrs by SRB assay relative to control
MDA-MB-435 = test: Cytotoxicity against human MDA-MB-435 cells assessed as cellular growth at 1 uM after 48 hrs by SRB assay relative to control
COLO 205 [15] = test: Cytotoxicity against human COLO205 cells assessed as cellular growth at 0.01 uM after 48 hrs by SRB assay relative to control
UO-31 = test: Cytotoxicity against human UO31 cells after 48 hrs by SRB assay; conditions: UO-31, 48 h
OVCAR-3 = test: Cytotoxicity against human OVCAR3 cells assessed as cellular growth at 0.1 uM after 48 hrs by SRB assay relative to control
[16] = Cytotoxicity against human NCI-ADR-RES cells assessed as cellular growth at 0.01 uM after 48 hrs by SRB assay relative to control
SR [17] = test: Cytotoxicity against human SR cells assessed as cellular growth at 0.1 uM after 48 hrs by SRB assay relative to control
[18] = Cytotoxicity against human NCI-ADR-RES cells assessed as cellular growth at 100 uM after 48 hrs by SRB assay relative to control
HOP-62 [19] = test: Cytotoxicity against human HOP62 cells after 48 hrs by SRB assay; conditions: HOP-62, 48 h
HL-60(TB) = test: Cytotoxicity against human HL-60(TB) cells assessed as cellular growth at 100 uM after 48 hrs by SRB assay relative to control
NCI-H23 = test: Cytotoxicity against human NCI-H23 cells assessed as cellular growth at 100 uM after 48 hrs by SRB assay relative to control
[20] = read-out: LC50 (the source's name)
[21] = read-out: pLC50 (the source's name) (converted)

In the case of `O=C(CCCn1c2c(sc3ccccc32)c(=O)n2nnc(-c3ccccc3)c12)NCCc1c[nH]cn1`, the Activity (SNB-75) is reported as 115%, the Activity (COLO 205 [1]) is reported as -100% and the Activity (SR [2]) is reported as -100%. It also gave a GI50 (SK-MEL-28 [3]; read-out: GI50) of 1.69 µM, a CC50 (SK-MEL-28 [3]; [20]) of 5.91 µM and a TGI (SK-MEL-28 [3]; read-out: TGI) of 3.17 µM. The GI50 (SK-MEL-28 [3]; read-out: pGI50 (converted)) was 1.7 µM, the CC50 (SK-MEL-28 [3]; [21]) was 5.89 µM and the TGI (SK-MEL-28 [3]; read-out: pTGI (converted)) was 3.16 µM. The GI50 (SR [4]; read-out: GI50) was 0.218 µM, the CC50 (SR [4]; [20]) was 4.99 µM and the TGI (SR [4]; read-out: TGI) was 0.664 µM. For the same compound, the GI50 (SR [4]; read-out: pGI50 (converted)) was 0.219 µM, the CC50 (SR [4]; [21]) was 5.01 µM and the TGI (SR [4]; read-out: pTGI (converted)) was 0.661 µM. For the same compound, the Activity (SR [5]) was -18%, the Activity (T47D) was 57% and the GI50 (BT-549 [6]; read-out: GI50) was 3.32 µM. It also gave an LC50 (concentration killing 50% of cells) (BT-549 [6]; read-out: LC50) of 51.5 µM, a TGI (BT-549 [6]; read-out: TGI) of 11.4 µM and a GI50 (BT-549 [6]; read-out: pGI50 (converted)) of 3.31 µM. The LC50 (concentration killing 50% of cells) (BT-549 [6]; read-out: pLC50 (converted)) was 51.3 µM, the TGI (BT-549 [6]; read-out: pTGI (converted)) was 11.5 µM and the Activity (HOP-62 [7]) was -79%. The Activity (NCI-H226) was 101%, the Activity (UACC-62 [8]) was 94% and the Activity (OVCAR-4 [9]) was 100%. For the same compound, the Activity (SK-MEL-28 [10]) was 92%, the GI50 (TK-10; read-out: GI50) was 2.17 µM and the CC50 (TK-10; [20]) was 6.42 µM. For the same compound, the TGI (TK-10; read-out: TGI) was 3.73 µM, the GI50 (TK-10; read-out: pGI50 (converted)) was 2.19 µM and the CC50 (TK-10; [21]) was 6.46 µM. For the same compound, the TGI (TK-10; read-out: pTGI (converted)) was 3.72 µM, the Activity (UACC-62 [11]) was 96% and the Activity (LOX IMVI) was 89%. The Activity (HCT-116) was 3%, the GI50 (SF-295; read-out: GI50) was 0.456 µM and the CC50 (SF-295; [20]) was 5.41 µM. For the same compound, the TGI (SF-295; read-out: TGI) was 2.11 µM, the GI50 (SF-295; read-out: pGI50 (converted)) was 0.457 µM and the CC50 (SF-295; [21]) was 5.37 µM. It also gave a TGI (SF-295; read-out: pTGI (converted)) of 2.09 µM, an Activity (OVCAR-4 [12]) of -87% and a GI50 (Malme-3M; read-out: GI50) of 1.58 µM. The CC50 (Malme-3M; [20]) was 6.8 µM, the TGI (Malme-3M; read-out: TGI) was 3.28 µM and the GI50 (Malme-3M; read-out: pGI50 (converted)) was 1.58 µM. The CC50 (Malme-3M; [21]) was 6.76 µM, the TGI (Malme-3M; read-out: pTGI (converted)) was 3.31 µM and the Activity (BT-549 [13]) was 90%. It also gave a GI50 (NCI-H460; read-out: GI50) of 1.59 µM, a TGI (NCI-H460; read-out: TGI) of 3.95 µM and a GI50 (NCI-H460; read-out: pGI50 (converted)) of 1.58 µM. For the same compound, the TGI (NCI-H460; read-out: pTGI (converted)) was 3.98 µM, the Activity (UACC-62 [14]) was 99% and the Activity (MDA-MB-231) was 109%. For the same compound, the Activity (MDA-MB-435) was 34%, the Activity (COLO 205 [15]) was 87% and the GI50 (UO-31; read-out: GI50) was 1.3 µM. It also gave a CC50 (UO-31; [20]) of 5.22 µM, a TGI (UO-31; read-out: TGI) of 2.61 µM and a GI50 (UO-31; read-out: pGI50 (converted)) of 1.29 µM. For the same compound, the CC50 (UO-31; [21]) was 5.25 µM, the TGI (UO-31; read-out: pTGI (converted)) was 2.63 µM and the Activity (OVCAR-3) was 107%. It also gave an Activity [16] of 101%, an Activity (SR [17]) of 85% and an Activity [18] of 32%. For the same compound, the GI50 (HOP-62 [19]; read-out: GI50) was 1.31 µM, the CC50 (HOP-62 [19]; [20]) was 6.32 µM and the TGI (HOP-62 [19]; read-out: TGI) was 2.87 µM. It also gave a GI50 (HOP-62 [19]; read-out: pGI50 (converted)) of 1.32 µM, a CC50 (HOP-62 [19]; [21]) of 6.31 µM and a TGI (HOP-62 [19]; read-out: pTGI (converted)) of 2.88 µM. The Activity (HL-60(TB)) was -89% and the Activity (NCI-H23) was -38%.
